How the values were obtained:
SIRT1 [1] = target: T1, SIRT1 (Homo sapiens, UniProt Q96EB6); assay: Trp mass spectrometry assay of SIRT1 activity; type: biochemical; conditions: Trp assay; for Trp EC1.5 (μM): concentration giving 150% activation of SIRT1; for Emax: percent maximum fold activation, read-out: Trp % Fold Act
T1 sequence (Q96EB6 1-747): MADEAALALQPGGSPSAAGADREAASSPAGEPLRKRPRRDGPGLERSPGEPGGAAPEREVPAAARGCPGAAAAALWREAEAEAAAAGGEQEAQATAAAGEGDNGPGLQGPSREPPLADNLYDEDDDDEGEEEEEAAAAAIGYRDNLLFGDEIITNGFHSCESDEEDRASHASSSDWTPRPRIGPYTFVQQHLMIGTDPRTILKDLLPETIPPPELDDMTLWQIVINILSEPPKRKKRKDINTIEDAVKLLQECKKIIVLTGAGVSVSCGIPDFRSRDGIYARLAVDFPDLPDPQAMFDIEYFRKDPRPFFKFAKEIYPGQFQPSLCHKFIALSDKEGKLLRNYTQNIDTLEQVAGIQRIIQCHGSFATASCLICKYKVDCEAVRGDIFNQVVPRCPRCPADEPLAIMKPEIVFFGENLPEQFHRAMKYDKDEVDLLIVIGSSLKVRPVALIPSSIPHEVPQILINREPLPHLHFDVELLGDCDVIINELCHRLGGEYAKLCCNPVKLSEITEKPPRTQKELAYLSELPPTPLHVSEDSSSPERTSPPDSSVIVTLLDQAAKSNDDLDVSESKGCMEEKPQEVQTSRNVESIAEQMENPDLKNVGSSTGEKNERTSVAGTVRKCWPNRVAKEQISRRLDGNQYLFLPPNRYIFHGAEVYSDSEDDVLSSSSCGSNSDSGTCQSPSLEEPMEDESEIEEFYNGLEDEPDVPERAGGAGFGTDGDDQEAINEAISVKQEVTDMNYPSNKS
Method in brief: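 Activation readout: EC1.5 (concentration raising activity 50% over control) and percent maximum activation, from mass-spec quantitation of OAADPR or deacetylated Trp peptide. Reaction: 0.5 μM acetylated Trp peptide, 120 μM βNAD+, 10 nM bacterially expressed N-His SIRT1, pH 7.5 HEPES buffer with […], 25 min at 25° C.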

SIRT1 [2] = target: T1, SIRT1; assay: TAMRA based mass spectrometry assay of SIRT1 activity; type: biochemical; conditions: TAMRA assay; for TAMRA EC1.5 (μM): concentration giving 150% activation of SIRT1; for Emax: percent maximum fold activation, read-out: TAMRA % Fold Act
Method in brief: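 Deacetylation of a biotinylated, TAMRA-tagged p53-based peptide (0.5 μM) by 10 nM His-tagged SIRT1 with 120 μM βNAD+, 25 °C for 25 min, pH 8 Tris-acetate buffer, across a compound concentration range. Quenched by formic acid and read by mass spec as product peptide or OAADPR; activity relative to DMSO reactions, nicotinamide defining maximal inhibition.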

Row | SMILES | Trp EC1.5 (μM) (SIRT1 [1]) | Emax (SIRT1 [1]) [%] | TAMRA EC1.5 (μM) (SIRT1 [2]) | Emax (SIRT1 [2]) [%]
1 | Cc1cccc(-c2ccc3nc(C)c(C(=O)Nc4ccc(C)nn4)n3n2)c1 [Compound 692] | A (EC1.5<1 μM) | < 350 | A (EC1.5<1 μM) | < 350
2 | Cc1ccc(NC(=O)c2c(C)nc3ccc(-c4ccccc4C)nn23)nn1 [Compound 694] | B (EC1.5 1-25 μM) | < 350 | B (EC1.5 1-25 μM) | ≥ 350
3 | O=C(Nc1cnc2ccc(-c3ccccc3C(F)(F)F)nn12)c1cnc(O)cn1 [Compound 704] | B (EC1.5 1-25 μM) | < 350 | A (EC1.5<1 μM) | ≥ 350
4 | Cc1nc(C(=O)Nc2cnn3ccc(-c4ccccc4OC(F)(F)F)nc23)c(C)s1 [Compound 713] | B (EC1.5 1-25 μM) | < 350 | B (EC1.5 1-25 μM) | ≥ 350
5 | Cc1ccc(NC(=O)c2c(C)nc3ccc(-c4cccc(F)c4)nn23)nn1 [Compound 716] | A (EC1.5<1 μM) | < 350 | B (EC1.5 1-25 μM) | < 350
6 | COc1ccc(NC(=O)c2c(C)nc3ccc(-c4cccc(OC(F)(F)F)c4)nn23)nn1 [Compound 718] | C (EC1.5>25 μM) | < 350 | A (EC1.5<1 μM) | < 350
7 | Cc1cccc(C(=O)Nc2cnn3ccc(-c4ccccc4OC(F)(F)F)nc23)n1 [Compound 725] | B (EC1.5 1-25 μM) | < 350 | A (EC1.5<1 μM) | ≥ 350
8 | CC(C)c1nccc(C(=O)Nc2cnn3ccc(-c4ccccc4OC(F)(F)F)nc23)n1 [Compound 728] | C (EC1.5>25 μM) | < 350 | A (EC1.5<1 μM) | ≥ 350
9 | Cc1nc2c(C)cc(-c3ccccc3C(F)(F)F)nn2c1C(=O)Nc1ccnc(C(C)C)n1 [Compound 730] | A (EC1.5<1 μM) | ≥ 350 | A (EC1.5<1 μM) | ≥ 350
10 | Cc1cnc(C(=O)Nc2cnn3ccc(-c4ccccc4OC(F)(F)F)nc23)cn1 [Compound 734] | C (EC1.5>25 μM) | < 350 | B (EC1.5 1-25 μM) | ≥ 350
11 | Cc1cc(C)nc(C(=O)Nc2cnn3ccc(-c4ccccc4OC(F)(F)F)nc23)n1 [Compound 736] | C (EC1.5>25 μM) | < 350 | A (EC1.5<1 μM) | ≥ 350
12 | Cc1ccc(NC(=O)c2c(C)nc3ccc(-c4ccccc4Cl)nn23)nn1 [Compound 742] | C (EC1.5>25 μM) | < 350 | A (EC1.5<1 μM) | < 350
13 | COc1ccc(NC(=O)c2c(C)nc3ccc(-c4ccccc4Cl)nn23)nn1 [Compound 743] | C (EC1.5>25 μM) | < 350 | B (EC1.5 1-25 μM) | < 350
14 | Cc1nc(C(=O)Nc2cnn3ccc(-c4ccccc4OC(F)(F)F)nc23)cs1 [Compound 752] | B (EC1.5 1-25 μM) | < 350 | B (EC1.5 1-25 μM) | ≥ 350
15 | O=C(Nc1cnn2ccc(-c3ccccc3OC(F)(F)F)nc12)c1ncc(F)cc1F [Compound 755] | B (EC1.5 1-25 μM) | < 350 | A (EC1.5<1 μM) | ≥ 350
16 | COc1ccc(NC(=O)c2c(C)nc3ccc(-c4cccc(F)c4)nn23)nn1 [Compound 761] | A (EC1.5<1 μM) | < 350 | C (EC1.5>25 μM) | < 350
17 | Cc1cccc(-c2ccc3nc(C)c(C(=O)Nc4cccnn4)n3n2)c1 [Compound 766] | A (EC1.5<1 μM) | < 350 | A (EC1.5<1 μM) | < 350
18 | Cc1nc2ccc(-c3cccc(F)c3)nn2c1C(=O)Nc1cccnn1 [Compound 767] | A (EC1.5<1 μM) | ≥ 350 | B (EC1.5 1-25 μM) | < 350
19 | O=C(Nc1cnn2ccc(-c3ccccc3OC(F)(F)F)nc12)c1nc(C(F)(F)F)cs1 [Compound 770] | C (EC1.5>25 μM) | < 350 | B (EC1.5 1-25 μM) | ≥ 350
20 | Cc1nc2ccc(-c3cccc(OC[C@H](O)CO)c3)nn2c1C(=O)Nc1ccccn1 [Compound 772, (R)-6-(3-(2,3-dihydroxypropoxy)phenyl)-2-methyl-N-(pyridin-2-yl)imidazo[1,2-b]pyridazine-3-carboxamide] | B (EC1.5 1-25 μM) | ≥ 350 | B (EC1.5 1-25 μM) | ≥ 350

Other lines, results leading:

Row | Trp EC1.5 (μM) (SIRT1 [1]) | Emax (SIRT1 [1]) [%] | TAMRA EC1.5 (μM) (SIRT1 [2]) | Emax (SIRT1 [2]) [%] | SMILES
21 | A (EC1.5<1 μM) | ≥ 350 | A (EC1.5<1 μM) | ≥ 350 | Cc1nn2ccc(-c3ccccc3C(F)(F)F)nc2c1C(=O)Nc1cccnn1 [Compound 695]
22 | A (EC1.5<1 μM) | ≥ 350 | A (EC1.5<1 μM) | ≥ 350 | Cc1ccc(NC(=O)c2c(C)nn3ccc(-c4ccccc4C(F)(F)F)nc23)c(C)n1 [Compound 698]
23 | A (EC1.5<1 μM) | ≥ 350 | B (EC1.5 1-25 μM) | < 350 | Cc1cccnc1NC(=O)c1cnn2ccc(-c3ccccc3OC(F)(F)F)nc12 [Compound 701]
24 |  | < 350 |  | < 350 | Cc1nc2ccc(-c3ccccc3F)nn2c1C(=O)Nc1cccnn1 [Compound 706]
25 | A (EC1.5<1 μM) | ≥ 350 | A (EC1.5<1 μM) | ≥ 350 | CCOc1cc(NC(=O)c2c(C)nn3ccc(-c4ccccc4C(F)(F)F)nc23)ccn1 [Compound 707]
26 | A (EC1.5<1 μM) | ≥ 350 | A (EC1.5<1 μM) | ≥ 350 | Cc1cnc(NC(=O)c2c(C)nn3ccc(-c4ccccc4C(F)(F)F)nc23)cn1 [Compound 710]
27 | A (EC1.5<1 μM) | ≥ 350 | B (EC1.5 1-25 μM) | < 350 | Cc1cccnc1NC(=O)c1c(C)nn2ccc(-c3ccccc3C(F)(F)F)nc12 [Compound 722, 2-methyl-N-(3-methylpyridin-2-yl)-5-(2-(trifluoromethyl)phenyl)pyrazolo[1,5-a]pyrimidine-3-carboxamide]
28 | B (EC1.5 1-25 μM) | < 350 | C (EC1.5>25 μM) | < 350 | Cc1cnc(NC(=O)c2cnn3ccc(-c4ccccc4C(F)(F)F)nc23)c(C)n1 [Compound 724]
29 | A (EC1.5<1 μM) | < 350 | A (EC1.5<1 μM) | ≥ 350 | Cc1nc2c(C)cc(-c3ccccc3C(F)(F)F)nn2c1C(=O)Nc1ccnc(C(C)(C)C)n1 [Compound 731]
30 | A (EC1.5<1 μM) | ≥ 350 | A (EC1.5<1 μM) | ≥ 350 | Cc1cncc(NC(=O)c2c(C)nn3ccc(-c4ccccc4C(F)(F)F)nc23)n1 [Compound 737]
31 | C (EC1.5>25 μM) | < 350 | A (EC1.5<1 μM) | ≥ 350 | Cc1cccnc1C(=O)Nc1cnn2ccc(-c3ccccc3C(F)(F)F)nc12 [Compound 746]
32 | B (EC1.5 1-25 μM) | < 350 | A (EC1.5<1 μM) | ≥ 350 | O=C(Nc1cnn2ccc(-c3ccccc3C(F)(F)F)nc12)c1cccc(-n2cnnc2)n1 [Compound 748]
33 | B (EC1.5 1-25 μM) | < 350 | A (EC1.5<1 μM) | ≥ 350 | O=C(Nc1cnn2ccc(-c3ccccc3C(F)(F)F)nc12)c1ncc(F)cc1F [Compound 749]
34 | B (EC1.5 1-25 μM) | < 350 | A (EC1.5<1 μM) | ≥ 350 | O=C(Nc1cnn2ccc(-c3ccccc3OC(F)(F)F)nc12)c1ncccc1F [Compound 754]

— patent US9957271B2, “Substituted bicyclic aza-heterocycles and analogues as sirtuin modulators” (GlaxoSmithKline, LLC, priority 2012, dated 2018)
